These results are taken from patent publication US10441568B2, “Nitroxide radicals for the treatment of diseases of the respiratory tract” (priority 2015, dated 2019).

A short description of series [1]: Toxicity / maximally tolerated dose in mice. The class given is in vivo. To be noted: administered orally or via IP injection to untreated OVA-challenged mice for 22 days. As to the method: 3-CP was also administered using 3 daily intraperitoneal (IP) injections (200 μl, 0.15 M, ˜300 mg/kg) 0.5 hour prior to the challenge with OVA aerosol, or by nasal instillation (50 μl, 0.3 M, ˜150 mg/kg) twice a day 0.5 hour prior to the challenge with OVA aerosol and 6 hours later without exceeding its maximally tolerated dose, which has been previously established to be 300-500 mg/kg. Both 3-CP and TPL were non-toxic when administered orally or via IP injection to untreated OVA-challenged mice for 22 days.

Series [2] relates to ovalbumin-induced murine model of asthma. Briefly: Lung resistance / airway hyper-responsiveness to methacholine in OVA asthma model. The class given is in vivo, BALB/c mice. The method, then:
(§1) All experimental procedures were carried out in accordance with the NIH Guidelines for the Care and Use of Laboratory Animals. Specific pathogen-free (SPF) male BALB/c mice (6-7 weeks of age, 18-22 grams), routinely screened serologically for relevant respiratory pathogens, were maintained in an animal housing facility for 1 week before use and given access to food and water ad libitum. Animals were randomly assigned to the indicated experimental groups, and sensitized with two intraperitoneal (IP) injections (20 μg ovalbumin (OVA) emulsified in 2 mg aluminum hydroxide (an adjuvant) in 200 μl phosphate buffer saline (PBS), pH 7.4), on days 1 and 10.
(§2) After another week, the animals were challenged by exposure to ovalbumin (OVA) aerosol (1%, w/v, in PBS) for 30 minutes each day on days 17, 18 and 19, in order to elicit an inflammatory reaction in the lungs characterized by airway hyper-responsiveness (AHR), an influx of inflammatory cells (particularly eosinophils), and increased pulmonary levels of various cytokines and transforming growth factors, protein nitration and lipid peroxidation.
The features of allergic inflammation typically reached their peak a day or two after the final exposure. Mice were then subjected to one of the following treatments: (i) sham-sensitization plus challenge with PBS; (ii) positive control-sensitization plus challenge with OVA; (iii) sensitization plus challenge with OVA and various indicated treatments (e.g., with nitroxide or dexamethasone), including different modes (oral, IP, intranasal, inhalation), time windows (sensitization stage, challenge stage, both stages and after the last challenge), and doses of nitroxide administration.
(§3) One day after the final challenge, respiratory activity and airway hyper-responsiveness (AHR) of experimental animals were evaluated. Whole body plethysmographs for enhanced pause (Penh) measurements are often used for assessment of AHR. However, critics have questioned the validity of Penh measurements, which supposedly measure airway obstruction of live non-sedated mice, stating that it is likely to measure the distress of the animal rather than actual obstruction. […] In brief, mice were sedated with an intraperitoneal (IP) injection of xylazine hydrochloride and anaesthetized with IP injection of pentobarbital. Subsequently, the animals were tracheostomized using an 18 gauge cannula, ventilated with a FlexiVent™ apparatus (SCIREQ), and muscle paralysis was induced with pancuronium bromide. The mice were ventilated in a quasi-sinusoidal fashion with the following settings: a tidal volume of 10 ml/kg, maximum inflation pressure of […] (30 cm H2O), a positive end expiratory pressure (PEEP) of 3 millibar and a frequency of 150 per minute. Following an equilibration period of 3 minutes of tidal ventilation, two lung inflations to a transrespiratory pressure of 2.5 millibar were performed and baseline measurements were taken. Airway hyper-responsiveness (AHR) was determined by aerosolizing increasing concentrations of methacholine. After baseline determination of airway resistance, mice were challenged with 0 to 64 mg/mL methacholine nebulized directly into the ventilatory circuit using an AeroNeb™ Lab nebulizer system (SCIREQ). Two models of respiratory mechanics were used to assess lung resistance: a linear 1st-order single compartment model and a constant-phase model. All data points were collected with FlexiVent™ software (SCIREQ). […]

Another series relates to IL-4. Briefly: IL-4 level in OVA asthma model. The class given is in vivo, BALB/c mice. The method, then:
as §1, §2
(§4) Bronchoalveolar lavage (BAL) fluid (also referred to herein as “BALf”) and bronchial submucosal inflammation are characteristic features of asthma. Mice were euthanized with an overdose of 50 mg/kg pentobarbital and ice-cold phosphate buffer saline (PBS) (0.6 ml) was instilled into the lungs. BAL fluid was obtained by three aspirations via tracheal cannulation, centrifuged, and the supernatant collected and stored at −70° C. Cell pellets were re-suspended in PBS and 100 μl aliquots placed onto slides and centrifuged (200 g, 4° C., 10 minutes) in a cytospin machine. Induction of oxidative stress was evaluated using a 2′,7′-dichlorofluorescein fluorescence assay, and total IgE, IgG2a, panel of cytokines, transforming growth factors, collagen, protein nitration and lipid peroxidation were measured using commercial kits according to the manufacturer's recommendations. A Sircol™ collagen assay kit was obtained from Biocolor Life Sciences Assays, a protein nitration assay kit was obtained from Abcam, and other assay kits were obtained from PeproTech Asia.
(§5) The efficacy of oral administration of 3-CP (1 weight percent in chow) during the sensitization period and/or challenge period was then compared to IP injection (˜300 mg/kg, 0.5 hour before the OVA challenge) or intranasal instillation (˜150 mg/kg, 0.5 hour before the OVA and 6 hours later) of 3-CP, as well as to dexamethasone treatment (1 mg/kg, 3 daily IP injections, 0.5 hour prior to the challenge with OVA aerosol).
(§6) In order to assess the effect of 3-CP on inflammatory signaling pathways, […] to procedures described hereinabove, upon oral, intranasal or IP administration of 3-CP.

In another series the test system is IL-5. Nature of the series: IL-5 level in OVA asthma model. The note with it: for IL-5 level: lung tissue (table title). In kind it is in vivo, BALB/c mice. The method, then: as §1, §2, §4, §5, §6
In series [3] the test system is bleomycin-induced pulmonary fibrosis. Nature of the series: Lung resistance in bleomycin pulmonary fibrosis model. The class given is in vivo, mice. The note with it: 3-CP 150 mg/kg daily intranasal, 14 days, 64 mg/ml methacholine, FIG. 17. The method, then:
as §3, with “Following an equilibration period of 3 minutes of tidal ventilation, two lung inflations to a transrespiratory pressure of 2.5 millibar were performed and baseline measurements were taken.” left out, “methacholine.” for “methacholine. After baseline determination of airway resistance, mice were challenged with 0 to 64 mg/mL methacholine nebulized directly into the ventilatory circuit using an AeroNeb™ Lab nebulizer system (SCIREQ). Two models of respiratory mechanics were used to assess lung resistance: a linear 1st-order single compartment model and a constant-phase model. All data points were collected with FlexiVent™ software (SCIREQ).”
The effect of 3-CP on bleomycin-induced inflammation was evaluated by determining lung resistance, total inflammatory cell count, and TGF-β1 levels, according to procedures described hereinabove.

The mark [4] stands for this setting: oral, 1 weight percent in chow, FIG. 3.
[5] abbreviates: OVA IP-C: 3-CP intraperitoneal during challenge.
Setting [6] is: OVA oral-C: 3-CP oral during challenge.
Setting [7] is: OVA oral-S&C: 3-CP oral during sensitization and challenge.
Setting [8] is: OVA oral-S: 3-CP oral during sensitization.
[9] abbreviates: oral administration vs IP injection.

Take `CC1(C)CC(C(N)=O)C(C)(C)N1[O]` (centres unmarked) [3-CP, 3-Carbamoyl-2,2,5,5-tetramethyl-pyrrolidin-1-oxyl]: the toxicity result in series [1] is on record as “non-toxic”. Further, in series [2] (oral 1 weight percent in chow during sensitization and challenge periods, FIG. 6), the “lung resistance, oral 3-CP in both periods compared with other regimens” value was “more effective than IP injection or intranasal instillation of 3-CP, oral administration of 3-CP during the sensitization period or challenge period alone, or treatment with dexamethasone”. Moreover, the “effect on methacholine-induced increase in lung resistance” value in series [2] (setting [4]) was “suppressed methacholine-induced increase in lung resistance”. Also, the “lung resistance suppression, 3-CP compared with TPL” value in series [2] (setting [4]) is “considerably more effective than TPL”. The “effect on OVA-induced increase in the level of IL-4” value in the series with IL-4 (FIG. 7A and Table 1) is on record as “inhibited”. In addition, the IL-4 level is 1.70 ng/mg in the series with IL-4 (setting [5]), 2.03 ng/mg with IL-4 (setting [6]), 1.65 ng/mg with IL-4 (setting [7]) and 2.44 ng/mg in the series with IL-4 (setting [8]). Besides, the “modulating IL-4 level, oral compared with IP 3-CP” value with IL-4 (setting [9]) was “consistently more effective than IP injection of 3-CP”. Moreover, the IL-5 level is on record as 2.08 ng/mg in the series with IL-5 (setting [5]), 2.40 ng/mg in the series on IL-5 (setting [6]), 1.96 ng/mg in the series with IL-5 (setting [7]) and 3.16 ng/mg with IL-5 (setting [8]). The “effect on OVA-induced increase in the level of IL-5” value in the series on IL-5 (lung tissue, FIG. 7B and Table 1) is on record as “inhibited”. Moreover, the “modulating IL-5 level, oral compared with IP 3-CP” value in the series with IL-5 (setting [9]) is “consistently more effective than IP injection of 3-CP”. For the same molecule, the “effect on bleomycin-induced increase in lung resistance” value in series [3] is recorded as “completely reversed”.
